Experimental data reported in patent US20100068204A1, “4-ARYLOXYQUINOLIN-2(1H)-ONES AS MTOR KINASE AND PI3 KINASE INHIBITORS, FOR USE AS ANTI-CANCER AGENTS” (Wyeth, priority 2008, published 2010).

How the values were obtained:
human TOR (FLAG-TOR) = human TOR (FLAG-TOR) (Homo sapiens, UniProt P42345); test: mTOR enzyme assay (DELFIA format, purified enzyme); assay type: biochemical; conditions: 800 ng/ml FLAG-TOR, 100 μM ATP, 1.25 μM His6-S6K; read-out: mTOR Kinase IC50
[1] = test system: MDA468 breast tumor cells; test: In vitro cell growth assay (MTS), MDA468; assay type: cell-based, human; conditions: three days after drug treatment
Summary of the method: (§1)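 Tumor cells plated ~3000/well; inhibitors in DMSO added one day later (final DMSO 0.25%). After three days of treatment, viable cell density read by MTS conversion, absorbance at 490 nm. Effect expressed relative to untreated control growth.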

PI3Kα = PI3Kα (Homo sapiens, UniProt P42336); test: PI3Kα fluorescence polarization assay; assay type: biochemical; conditions: 20 μM PIP2, 25 μM ATP
Chain of PI3Kα (P42336 whole entry, species assumed): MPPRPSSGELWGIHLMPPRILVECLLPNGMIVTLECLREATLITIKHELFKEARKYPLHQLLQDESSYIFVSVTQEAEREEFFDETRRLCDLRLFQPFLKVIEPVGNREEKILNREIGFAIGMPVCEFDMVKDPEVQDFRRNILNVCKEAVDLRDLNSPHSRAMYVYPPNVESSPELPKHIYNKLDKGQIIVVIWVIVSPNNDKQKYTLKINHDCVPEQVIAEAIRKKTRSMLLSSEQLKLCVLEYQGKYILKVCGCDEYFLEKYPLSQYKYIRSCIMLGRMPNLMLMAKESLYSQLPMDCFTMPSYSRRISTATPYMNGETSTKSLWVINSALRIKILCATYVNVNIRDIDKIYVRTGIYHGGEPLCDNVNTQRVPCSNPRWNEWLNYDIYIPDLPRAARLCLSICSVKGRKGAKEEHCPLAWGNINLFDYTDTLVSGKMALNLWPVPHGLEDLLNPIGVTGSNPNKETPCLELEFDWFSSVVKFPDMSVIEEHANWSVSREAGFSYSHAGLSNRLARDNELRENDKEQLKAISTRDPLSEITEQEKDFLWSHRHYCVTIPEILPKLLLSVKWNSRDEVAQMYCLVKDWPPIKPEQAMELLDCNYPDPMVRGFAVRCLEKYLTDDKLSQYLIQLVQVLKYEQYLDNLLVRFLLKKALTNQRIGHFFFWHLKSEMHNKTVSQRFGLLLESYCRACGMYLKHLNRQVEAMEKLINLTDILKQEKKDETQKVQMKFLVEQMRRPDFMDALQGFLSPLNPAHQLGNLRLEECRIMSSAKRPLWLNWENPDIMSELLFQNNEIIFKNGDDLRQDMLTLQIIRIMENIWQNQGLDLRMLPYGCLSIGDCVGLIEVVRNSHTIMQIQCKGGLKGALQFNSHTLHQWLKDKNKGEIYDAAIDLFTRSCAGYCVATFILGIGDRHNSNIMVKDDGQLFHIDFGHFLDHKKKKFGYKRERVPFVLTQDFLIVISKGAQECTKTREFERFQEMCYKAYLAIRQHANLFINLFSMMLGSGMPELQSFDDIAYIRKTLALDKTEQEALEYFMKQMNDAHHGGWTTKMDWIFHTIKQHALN
Chain of PI3Kα (P27986 whole entry partner, species assumed): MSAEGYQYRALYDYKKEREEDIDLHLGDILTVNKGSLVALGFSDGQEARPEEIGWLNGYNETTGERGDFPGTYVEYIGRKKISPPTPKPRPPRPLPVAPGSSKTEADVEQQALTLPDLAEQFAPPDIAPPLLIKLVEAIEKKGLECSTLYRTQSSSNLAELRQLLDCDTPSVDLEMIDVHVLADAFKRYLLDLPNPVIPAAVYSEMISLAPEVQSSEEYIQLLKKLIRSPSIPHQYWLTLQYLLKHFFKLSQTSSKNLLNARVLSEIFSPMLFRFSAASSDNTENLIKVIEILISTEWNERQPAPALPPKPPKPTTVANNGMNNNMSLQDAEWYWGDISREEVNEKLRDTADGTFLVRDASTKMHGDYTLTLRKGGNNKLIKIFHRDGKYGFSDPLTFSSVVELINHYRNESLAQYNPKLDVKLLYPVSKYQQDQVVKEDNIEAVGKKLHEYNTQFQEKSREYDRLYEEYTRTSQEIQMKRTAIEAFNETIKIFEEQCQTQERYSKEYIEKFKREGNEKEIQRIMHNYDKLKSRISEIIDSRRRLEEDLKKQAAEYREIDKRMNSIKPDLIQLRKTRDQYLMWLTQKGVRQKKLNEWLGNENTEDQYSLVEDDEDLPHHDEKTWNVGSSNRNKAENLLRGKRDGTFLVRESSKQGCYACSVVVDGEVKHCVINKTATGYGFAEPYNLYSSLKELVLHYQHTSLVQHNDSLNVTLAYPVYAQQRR
Summary of the method: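 Kinase reaction in 20 mM HEPES pH 7.5, 2 mM MgCl2, 0.05% CHAPS with final 20 μM diC8-PIP2 and 25 μM ATP, 30-60 min at room temperature. Stopped with 10 nM TAMRA-labelled probe plus 2.5 uM GST-murine GRP; fluorescence polarization read after 90-110 minutes.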

[2] = test system: LNCap prostate tumor cells; test: In vitro cell growth assay (MTS), LNCap; assay type: cell-based, human; conditions: three days after drug treatment
Summary of the method: as §1

Row | IC50 (human TOR (FLAG-TOR)) [µM] | IC50 ([1]; Homo sapiens, 72 h) [µM] | IC50 (PI3Kα) [µM] | IC50 ([2]; Homo sapiens, LNCaP, 72 h) [µM] | melting point [°C] | IC50 [1] [µM] | IC50 [2] [µM] | SMILES
1 | 0.37 | 60 | 24.1 | 8.88 | – | – | – | O=c1cc(Oc2ccccc2)c2ccccc2[nH]1
2 | > 20 | > 60 | > 10 | > 60 | – | – | – | CC(=O)N1CCC(C(=O)Nc2ccc3[nH]c(=O)cc(Oc4ccccc4)c3c2)CC1
3 | 14.5 | 35 | 0.383 | 22 | – | – | – | O=C(Cc1cccs1)Nc1ccc2[nH]c(=O)cc(Oc3ccccc3)c2c1
4 | > 20 | > 60 | > 10 | > 60 | – | – | – | CN(C)CC(=O)Nc1ccc2[nH]c(=O)cc(Oc3ccccc3)c2c1
5 | 0.23 | 8.5 | 5.13 | 4.1 | – | – | – | CC(C)(C)OC(=O)NC1(CNc2cccc(Oc3cc(=O)[nH]c4ccccc34)c2)CCCC1
6 | 0.09 | 8 | 7.98 | 3.3 | – | – | – | O=c1cc(Oc2cccc(NCc3ccc(-c4cccnc4)cc3)c2)c2ccccc2[nH]1
7 | 0.09 | 10 | 3.92 | 4.3 | – | – | – | O=c1cc(Oc2cccc(NCc3ccc(-c4cccc(CO)n4)cc3)c2)c2ccccc2[nH]1
8 | 0.18 | 4.1 | 9.54 | 3 | – | – | – | O=c1cc(Oc2cccc(NCC3CCN(Cc4ccccc4)CC3)c2)c2ccccc2[nH]1
9 | 0.17 | 3.5 | > 10 | 5.2 | – | – | – | Nc1nc(Cl)c(CNc2cccc(Oc3cc(=O)[nH]c4ccccc34)c2)c(Cl)n1
10 | 3.5 | 12 | > 10 | 5.3 | – | – | – | O=c1cc(Oc2cccc(NCc3ccc(Oc4ccc(F)cc4)cc3)c2)c2ccccc2[nH]1
11 | 0.35 | 1.2 | 1.42 | 1 | – | – | – | Cn1ccc2cc(CNc3cccc(Oc4cc(=O)[nH]c5ccccc45)c3)ccc21
12 | 15.8 | > 60 | 9.66 | > 60 | – | – | – | O=c1cc(Oc2ccc(-c3ccc(F)cc3)cc2)c2ccccc2[nH]1
13 | 1.83 | 23 | > 10 | > 60 | – | – | – | NC(=O)c1ccc(Oc2cc(=O)[nH]c3ccccc23)cc1
14 | > 20 | 60 | 6.54 | 18 | – | – | – | Nc1ccc(-c2ccc3[nH]c(=O)cc(Oc4ccccc4)c3c2)cc1
15 | 7 | 40 | > 10 | 17 | – | – | – | CN1CCN(c2ccc(Oc3cc(=O)[nH]c4ccccc34)cc2)CC1
16 | 0.21 | 9 | > 10 | 4 | – | – | – | CN1CCN(c2ccc(-c3cccc(Oc4cc(=O)[nH]c5ccccc45)c3)cn2)CC1
17 | 0.78 | 60 | > 10 | 45 | – | – | – | O=c1cc(Oc2ccc(C3N=CCN3)cc2)c2ccccc2[nH]1 (stereo not shown)
18 | 0.57 | 60 | > 10 | > 60 | – | – | – | O=c1cc(Oc2ccc(C3=NCCCN3)cc2)c2ccccc2[nH]1
19 | 0.09 | 1.95 | 9 | 23 | – | – | – | Nc1ccc(-c2cccc(Oc3cc(=O)[nH]c4ccccc34)c2)cn1
20 | 0.15 | 2 | 6.79 | 4.7 | – | – | – | O=c1cc(Oc2cccc(-c3ccc(NCCN4CCOCC4)nc3)c2)c2ccccc2[nH]1
21 | 1.12 | > 60 | > 10 | > 60 | – | – | – | O=c1cc(Oc2cccc(F)c2)c2ccccc2[nH]1
22 | 1.28 | > 60 | > 10 | 7.9 | – | – | – | COC(=O)c1cc(Oc2cc(=O)[nH]c3ccccc23)ccc1OC

Row | IC50 (human TOR (FLAG-TOR)) [µM] | IC50 ([1]; Homo sapiens, 72 h) [µM] | IC50 (PI3Kα) [µM] | IC50 ([2]; Homo sapiens, LNCaP, 72 h) [µM] | melting point [°C] | IC50 [1] [µM] | IC50 [2] [µM] | SMILES
23 | 0.23 | > 60 | > 10 | > 60 | – | – | – | O=c1cc(Oc2cccc3ccccc23)c2ccccc2[nH]1
24 | 1.65 | > 60 | 0.308 | > 60 | – | – | – | O=c1cc(Oc2ccccc2C(F)(F)F)c2ccccc2[nH]1
25 | 3.95 | 35 | > 10 | 12 | – | – | – | NCc1ccc(Oc2cc(=O)[nH]c3ccccc23)cc1
26 | 1.08 | 8 | > 10 | 1.05 | – | – | – | O=c1cc(Oc2ccc(-c3ccc(NCCN4CCOCC4)nc3)cc2)c2ccccc2[nH]1
27 | 0.08 | 10 | > 10 | 3.8 | – | – | – | CN(C)CCCOc1ccc(-c2cccc(Oc3cc(=O)[nH]c4ccccc34)c2)cn1
28 | 0.14 | 10 | > 10 | 2.2 | – | – | – | O=c1cc(Oc2cccc(-c3cnn(CCN4CCOCC4)c3)c2)c2ccccc2[nH]1
29 | 0.56 | 1.2 | 9 | 0.8 | – | – | – | CN1CCN(c2cc(-c3ccc(Oc4cc(=O)[nH]c5ccccc45)cc3)ccn2)CC1
30 | 6.75 | > 60 | 5.14 | 13 | – | – | – | O=c1cc(Oc2ccccc2)c2cc(Cl)ccc2[nH]1
31 | 0.54 | > 60 | 11 | > 60 | – | – | – | COc1ccc(Oc2cc(=O)[nH]c3ccccc23)cc1
32 | 0.6 | > 60 | 1.59 | 18 | – | – | – | O=c1cc(Oc2ccc(F)cc2)c2ccccc2[nH]1
33 | 1.15 | > 60 | 4.17 | 18 | – | – | – | Cc1ccc(Oc2cc(=O)[nH]c3ccccc23)cc1
34 | – | – | – | – | 262 to 265 | – | – | O=c1cc(Oc2cccc(OCc3ccccc3)c2)c2ccccc2[nH]1 [Example 57, 4-[3-(benzyloxy)phenoxy]quinolin-2(1H)-one]
35 | – | – | – | – | 242 to 243 | – | – | O=c1cc(Oc2cccnc2)c2ccccc2[nH]1 [Example 119, 4-(pyridin-3-yloxy)quinolin-2(1H)-one]
36 | – | – | – | – | > 360 | – | – | O=c1cc(Oc2ccccn2)c2ccccc2[nH]1 [Example 137, 4-(pyridin-2-yloxy)quinolin-2(1H)-one]
37 | – | – | – | – | 218 to 221 | – | – | CN1CCN(c2cccc(Oc3cc(=O)[nH]c4ccccc34)c2)CC1 [Example 140, 4-[3-(4-methylpiperazin-1-yl)phenoxy]quinolin-2(1H)-one]
38 | 0.13 | – | 11 | 5.3 | – | > 60 | – | O=c1cc(Oc2cccc(NCc3cccnc3Cl)c2)c2ccccc2[nH]1 [drawing 207]
39 | 0.15 | – | > 10 | – | – | 10 | 4.2 | O=c1cc(Oc2cccc(NCc3cccnc3Cl)c2)c2ccccc2[nH]1 [drawing 217]
40 | 0.24 | – | 0.736 | – | – | 20 | 7.5 | Cc1cccc(Oc2cc(=O)[nH]c3ccccc23)c1 [drawing 249]
41 | 0.5 | 40 | > 10 | – | – | – | 60 | Cc1cccc(Oc2cc(=O)[nH]c3ccccc23)c1 [drawing 313]
42 | 0.42 | 20 | 1.96 | 13 | – | – | – | CN(Cc1cccnc1)c1cccc(Oc2cc(=O)[nH]c3ccccc23)c1 [drawing 372]
43 | 1.16 | > 60 | > 10 | > 60 | – | – | – | O=c1cc(Oc2cccnc2)c2ccccc2[nH]1 [drawing 388]
